Experimental data: ChEMBL document CHEMBL3120136 (J Med Chem, 2014)
pEC50, pIC50: −log10 of the molar value. *1 amine or outer side, *2 acyl side, *3 side chain or, on linkers, in order; H or OH if unused. Where a SMILES comes first, the peptide text is derived from it. Side-chain parts run from the residue outwards. [ ]: non-standard residue; d: D form. The star is where a group is joined. Ac3c(1R,2S-2-vinyl) = C=C[C@@H]1C[C@]1(N)C(=O)O; NH(1-naphthylmethyl) = c1ccc2c(CN*)cccc2c1; NH(1-naphthyl) = c1ccc2c(N*)cccc2c1; Hyp = O=C(O)[C@@H]1C[C@@H](O)CN1; Chg = N[C@H](C(=O)O)C1CCCCC1; X2 = c1ccc(C2CN(*)CCO2)cc1; X3 = c1ccc(C2CCN(*)C2)cc1; Morpholide = C1CN(*)CCO1; Piperidide = C1CCN(*)CC1; Pyrrolidide = C1CCN(*)C1; X4 = c1ccc(C2COCCN2*)cc1; X5 = c1ccc2c(c1)CN(*)C2; X1 = c1ccc2c(c1)CCN2*; CO = O=C([*:1])[*:2]

Key:
[1] = Inhibition of Hepatitis C virus full-length NS3/4A protease assessed as quenched-fluorogenic RET-S1 substrate cleavage incubated for 10 mins prior to substrate addition by FRET analysis; parameters: species or system Hepacivirus hominis
[2] = tested on: Hepatitis C virus; experiment: Antiviral activity against Hepatitis C virus infected in human HuH7 cells assessed as inhibition of HCV subgenomic replicon replication after 72 hrs by ELISA; format: functional, organism-based, Hepacivirus hominis, Huh-7; details: Hepatitis C virus, Huh-7, 72 h; read-out: EC50

## COc1ccc2c(c1)CN(C(=O)O[C@@H]1C[C@H]3C(=O)N[C@]4(C(=O)NS(=O)(=O)C5CC5)C[C@H]4/C=C\CCCCC[C@H](NC(=O)OC(C)(C)C)C(=O)N3C1)C2
[1]
  pIC50: 8.64
[2]
  pEC50: 7.66

## CC(C)(C)OC(=O)N[C@H]1CCCCC/C=C\[C@@H]2C[C@@]2(C(=O)NS(=O)(=O)C2CC2)NC(=O)[C@@H]2C[C@@H](NC(=O)c3cc4ccccc4s3)CN2C1=O
[1]
  pIC50: 8.85
[2]
  pEC50: 7.68

## C=C[C@@H]1C[C@]1(NC(=O)[C@@H]1C[C@@H](OC(=O)N2CCc3ccccc32)CN1C(=O)[C@@H](NC(=O)[C@@H](NC(C)=O)C1CCCCC1)C(C)C)C(=O)O (Ac-[Chg]V[Hyp]([CO-X1])[Ac3c(1R,2S-2-vinyl)]-OH)
[1]
  pIC50: 6.70

## CC(C)(C)OC(=O)N[C@H]1CCCCC/C=C\[C@@H]2C[C@@]2(C(=O)NS(=O)(=O)C2CC2)NC(=O)[C@@H]2C[C@@H](OC(=O)N3CCc4c(F)cccc4C3)CN2C1=O
[1]
  pIC50: 9.15
[2]
  pEC50: 7.92

## CC(C)(C)OC(=O)N[C@H]1CCCCC/C=C\[C@@H]2C[C@@]2(C(=O)NS(=O)(=O)C(C)(C)C)NC(=O)[C@@H]2C[C@@H](OC(=O)N3Cc4ccccc4C3)CN2C1=O
[1]
  pIC50: 7.43
[2]
  pEC50: 6.71

## CC(C)(C)OC(=O)N[C@H]1CCCC(F)(F)C/C=C\[C@@H]2C[C@@]2(C(=O)NS(=O)(=O)C2CC2)NC(=O)[C@@H]2C[C@@H](OC(=O)N3Cc4cccc(F)c4C3)CN2C1=O
[1]
  pIC50: 9.30
[2]
  pEC50: 7.36

## CC(C)(C)OC(=O)N[C@H]1CCCCC/C=C\[C@@H]2C[C@@]2(C(=O)NS(=O)(=O)C2CC2)NC(=O)[C@@H]2C[C@@H](OC(=O)N3CCc4cccc(F)c4C3)CN2C1=O
[1]
  pIC50: 8.96
[2]
  pEC50: 7.92

## CC(C)(C)OC(=O)N[C@H]1CCCCC/C=C\[C@@H]2C[C@@]2(C(=O)NS(=O)(=O)Nc2ccc(C(F)(F)F)cc2)NC(=O)[C@@H]2C[C@@H](OC(=O)N3Cc4ccccc4C3)CN2C1=O
[1]
  pIC50: 8.01
[2]
  pEC50: 7.15

## CC(C)(C)OC(=O)N[C@H]1CCCCC/C=C\[C@@H]2C[C@@]2(C(=O)NS(=O)(=O)C2CC2)NC(=O)[C@@H]2C[C@@H](OC(=O)N3CCc4cc(C(F)(F)F)ccc4C3)CN2C1=O
[1]
  pIC50: 8.59
[2]
  pEC50: 7.46

## CC(C)(C)OC(=O)N[C@H]1CCN(CC(F)(F)F)CC/C=C\[C@@H]2C[C@@]2(C(=O)NS(=O)(=O)C2CC2)NC(=O)[C@@H]2C[C@@H](OC(=O)N3Cc4cccc(F)c4C3)CN2C1=O
[1]
  pIC50: 8.74
[2]
  pEC50: 7.62

## CO[C@@H]1C[C@H]2C(=O)N[C@]3(C(=O)NS(=O)(=O)C4CC4)C[C@H]3/C=C\CCCCC[C@H](NC(=O)OC(C)(C)C)C(=O)N2C1
[1]
  pIC50: 6.66
[2]
  pEC50: 5.20

## CC(C)(C)OC(=O)N[C@H]1CCCCC/C=C\[C@@H]2C[C@@]2(C(=O)NS(=O)(=O)C2CC2)NC(=O)[C@@H]2C[C@@H](OC(=O)N3Cc4ccc(C(F)(F)F)cc4C3)CN2C1=O
[1]
  pIC50: 7.68
[2]
  pEC50: 7.70

## CC(C)(C)OC(=O)N[C@H]1CCCC/C=C\[C@@H]2C[C@@]2(C(=O)NS(=O)(=O)C2CC2)NC(=O)[C@@H]2C[C@@H](OC(=O)N3Cc4cccc(F)c4C3)CN2C1=O
[1]
  pIC50: 8.82
[2]
  pEC50: 7.12

## O=C(N[C@H]1CCCCC/C=C\[C@@H]2C[C@@]2(C(=O)NS(=O)(=O)C2CC2)NC(=O)[C@@H]2C[C@@H](OC(=O)N3Cc4ccccc4C3)CN2C1=O)OC1CCCC1
[1]
  pIC50: 9.00
[2]
  pEC50: 8.40

## CC(C)(C)OC(=O)N[C@H]1CCCCC/C=C\[C@@H]2C[C@@]2(C(=O)NS(=O)(=O)N2CCCC2)NC(=O)[C@@H]2C[C@@H](OC(=O)N3Cc4ccccc4C3)CN2C1=O
[1]
  pIC50: 8.59
[2]
  pEC50: 7.93

## CC(C)(C)OC(=O)N[C@H]1CCCCC/C=C\[C@@H]2C[C@@]2(C(=O)NS(=O)(=O)C2CC2)NC(=O)[C@@H]2C[C@@H](NC(=O)c3nc4cc(Cl)ccc4s3)CN2C1=O
[1]
  pIC50: 8.28
[2]
  pEC50: 6.90

## COCC1(S(=O)(=O)NC(=O)[C@@]23C[C@H]2/C=C\CCCCC[C@H](NC(=O)OC(C)(C)C)C(=O)N2C[C@H](OC(=O)N4Cc5ccccc5C4)C[C@H]2C(=O)N3)CC1
[1]
  pIC50: 8.11
[2]
  pEC50: 7.89

## C=C[C@@H]1C[C@]1(NC(=O)[C@@H]1C[C@@H](OC(=O)Nc2cccc3ccccc23)CN1C(=O)[C@@H](NC(=O)[C@@H](NC(C)=O)C1CCCCC1)C(C)C)C(=O)O (Ac-[Chg]V[Hyp]([CO-NH(1-naphthyl)])[Ac3c(1R,2S-2-vinyl)]-OH)
[1]
  pIC50: 6.09

## CC(C)(C)OC(=O)N[C@H]1CCCCC/C=C\[C@@H]2C[C@@]2(C(=O)NS(=O)(=O)c2ccc(C#N)cc2)NC(=O)[C@@H]2C[C@@H](OC(=O)N3Cc4ccccc4C3)CN2C1=O
[1]
  pIC50: 8.52
[2]
  pEC50: 6.90

## CC(C)(C)OC(=O)N[C@H]1CCCCC/C=C\[C@@H]2C[C@@]2(C(=O)O)NC(=O)[C@@H]2C[C@@H](OC(=O)N3Cc4c(Cl)ccc(Cl)c4C3)CN2C1=O
[1]
  pIC50: 7.68
[2]
  pEC50: 5.83

## CC(C)(C)OC(=O)N[C@H]1CCCCC/C=C\[C@@H]2C[C@@]2(C(=O)NS(=O)(=O)C2CC2)NC(=O)[C@@H]2C[C@@H](OC(=O)N3CCc4cc(F)ccc4C3)CN2C1=O
[1]
  pIC50: 8.70
[2]
  pEC50: 7.96

## CC(C)(C)OC(=O)N[C@H]1CCCCC/C=C\[C@@H]2C[C@@]2(C(=O)O)NC(=O)[C@@H]2C[C@@H](OC(=O)N3Cc4cccc(Cl)c4C3)CN2C1=O
[1]
  pIC50: 7.89
[2]
  pEC50: 6.29

## CC(C)(C)OC(=O)N[C@H]1CCCCC/C=C\[C@@H]2C[C@@]2(C(=O)NS(=O)(=O)C2CC2)NC(=O)[C@@H]2C[C@@H](OC(=O)N3Cc4ccc(C#N)cc4C3)CN2C1=O
[1]
  pIC50: 8.60
[2]
  pEC50: 6.95

## O=C(N[C@H]1CCCCC/C=C\[C@@H]2C[C@@]2(C(=O)NS(=O)(=O)C2CC2)NC(=O)[C@@H]2C[C@@H](OC(=O)N3Cc4ccccc4C3)CN2C1=O)OC1CCOCC1
[1]
  pIC50: 8.66
[2]
  pEC50: 7.01

## CC(C)(C)OC(=O)N[C@H]1CCCCC/C=C\[C@@H]2C[C@@]2(C(=O)NS(=O)(=O)C2CC2)NC(=O)[C@@H]2C[C@@H](OC(=O)N3Cc4c(Cl)ccc(Cl)c4C3)CN2C1=O
[1]
  pIC50: 8.77
[2]
  pEC50: 8.14

## CC(C)Nc1ccc2c(c1)CN(C(=O)O[C@@H]1C[C@H]3C(=O)N[C@]4(C(=O)NS(=O)(=O)C5CC5)C[C@H]4/C=C\CCCCC[C@H](NC(=O)OC(C)(C)C)C(=O)N3C1)C2
[1]
  pIC50: 8.37
[2]
  pEC50: 7.96

## CC(C)(C)OC(=O)N[C@H]1CCCCC/C=C\[C@@H]2C[C@@]2(C(=O)NS(=O)(=O)C2CC2)NC(=O)[C@@H]2C[C@@H](OC(=O)N3Cc4ccc(Cl)cc4C3)CN2C1=O
[1]
  pIC50: 8.70
[2]
  pEC50: 8.04

## CC1CN(C(=O)O[C@@H]2C[C@H]3C(=O)N[C@]4(C(=O)NS(=O)(=O)C5CC5)C[C@H]4/C=C\CCCCC[C@H](NC(=O)OC(C)(C)C)C(=O)N3C2)Cc2ccccc21 (stereo not given in full)
[1]
  pIC50: 9.00
[2]
  pEC50: 8.24

## CC(C)(C)OC(=O)N[C@H]1COCCC/C=C\[C@@H]2C[C@@]2(C(=O)NS(=O)(=O)C2CC2)NC(=O)[C@@H]2C[C@@H](OC(=O)N3Cc4cccc(F)c4C3)CN2C1=O
[1]
  pIC50: 8.74
[2]
  pEC50: 7.15

## CC(C)(C)OC(=O)N[C@H]1CCCCC/C=C\[C@@H]2C[C@@]2(C(=O)O)NC(=O)[C@@H]2C[C@@H](OC(=O)N3Cc4ccc(C(F)(F)F)cc4C3)CN2C1=O
[1]
  pIC50: 6.71
[2]
  pEC50: 5.12

## C=C[C@@H]1C[C@]1(NC(=O)[C@@H]1C[C@@H](OC(=O)N2Cc3ccccc3C2)CN1C(=O)[C@@H](NC(=O)[C@@H](NC(C)=O)C1CCCCC1)C(C)C)C(=O)O (Ac-[Chg]V[Hyp]([CO-X5])[Ac3c(1R,2S-2-vinyl)]-OH)
[1]
  pIC50: 6.73

## CC(C)(C)OC(=O)N[C@H]1CCCCC/C=C\[C@@H]2C[C@@]2(C(=O)NS(=O)(=O)C2CC2)NC(=O)[C@@H]2C[C@@H](NC(=O)c3nc4ccccc4s3)CN2C1=O
[1]
  pIC50: 8.46
[2]
  pEC50: 7.89

## CC(C)(C)OC(=O)N[C@H]1CCCCC/C=C\[C@@H]2C[C@@]2(C(=O)NS(=O)(=O)C2(Cc3ccccc3)CC2)NC(=O)[C@@H]2C[C@@H](OC(=O)N3Cc4ccccc4C3)CN2C1=O
[1]
  pIC50: 8.80
[2]
  pEC50: 7.60

## C=C[C@@H]1C[C@]1(NC(=O)[C@@H]1C[C@@H](OC(=O)N2CCOCC2)CN1C(=O)[C@@H](NC(=O)[C@@H](NC(C)=O)C1CCCCC1)C(C)C)C(=O)O (Ac-[Chg]V[Hyp]([CO-Morpholide])[Ac3c(1R,2S-2-vinyl)]-OH)
[1]
  pIC50: 4.33

## C=C[C@@H]1C[C@]1(NC(=O)[C@@H]1C[C@@H](OC(=O)N2CCOCC2c2ccccc2)CN1C(=O)[C@@H](NC(=O)[C@@H](NC(C)=O)C1CCCCC1)C(C)C)C(=O)O (stereo partly drawn) (Ac-[Chg]V[Hyp]([CO-X4])[Ac3c(1R,2S-2-vinyl)]-OH)
[1]
  pIC50: 5.26

## C=C[C@@H]1C[C@]1(NC(=O)[C@@H]1C[C@@H](OC(=O)N2CCOC(c3ccccc3)C2)CN1C(=O)[C@@H](NC(=O)[C@@H](NC(C)=O)C1CCCCC1)C(C)C)C(=O)O (stereo partly drawn) (Ac-[Chg]V[Hyp]([CO-X2])[Ac3c(1R,2S-2-vinyl)]-OH)
[1]
  pIC50: 5.32

## C=C[C@@H]1C[C@]1(NC(=O)[C@@H]1C[C@@H](OC(=O)N2CCCC2)CN1C(=O)[C@@H](NC(=O)[C@@H](NC(C)=O)C1CCCCC1)C(C)C)C(=O)O (Ac-[Chg]V[Hyp]([CO-Pyrrolidide])[Ac3c(1R,2S-2-vinyl)]-OH)
[1]
  pIC50: 4.83

## C=C[C@@H]1C[C@]1(NC(=O)[C@@H]1C[C@@H](OC(=O)NCc2cccc3ccccc23)CN1C(=O)[C@@H](NC(=O)[C@@H](NC(C)=O)C1CCCCC1)C(C)C)C(=O)O (Ac-[Chg]V[Hyp]([CO-NH(1-naphthylmethyl)])[Ac3c(1R,2S-2-vinyl)]-OH)
[1]
  pIC50: 6.08

## C=C[C@@H]1C[C@]1(NC(=O)[C@@H]1C[C@@H](OC(=O)N2CCCCC2)CN1C(=O)[C@@H](NC(=O)[C@@H](NC(C)=O)C1CCCCC1)C(C)C)C(=O)O (Ac-[Chg]V[Hyp]([CO-Piperidide])[Ac3c(1R,2S-2-vinyl)]-OH)
[1]
  pIC50: 5.37

## C=C[C@@H]1C[C@]1(NC(=O)[C@@H]1C[C@@H](OC(=O)N2CCC(c3ccccc3)C2)CN1C(=O)[C@@H](NC(=O)[C@@H](NC(C)=O)C1CCCCC1)C(C)C)C(=O)O (stereo partly drawn) (Ac-[Chg]V[Hyp]([CO-X3])[Ac3c(1R,2S-2-vinyl)]-OH)
[1]
  pIC50: 6.13
